Assay results taken from ChEMBL document CHEMBL3046330, “Synthesis and biological activity of hydrazidehydrazones and their corresponding 3-acetyl-2,5-disubstituted-2,3-dihydro-1,3,4-oxadiazoles” (Med Chem Res, 2012).
Values after ≈ are worked out from the molar mass of the structure shown. Active and inactive are the calls of the source. The rule behind the calls is not given here.

Assays:
HL-60 [1] = experiment: Cytotoxicity against Homo sapiens (human) HL60 cells; format: cell-based
Candida albicans [2] = experiment: Antifungal activity against Candida albicans NRRL Y-12983 after 24 hr by NCCLS broth microdilution method; format: functional; conditions: NRRL Y-12983, 24 h
Nakaseomyces glabratus = experiment: Antifungal activity against Candida glabrata clinical isolate after 24 hr by NCCLS broth microdilution method; format: functional
Candida parapsilosis = experiment: Antifungal activity against Candida parapsilosis NRRL Y-12696 after 24 hr by NCCLS broth microdilution method; format: functional; conditions: Lodderomyces parapsilosis, NRRL Y-12696, 24 h
Pichia kudriavzevii = experiment: Antifungal activity against Pichia kudriavzevii NRRL Y-7179 after 24 hr by NCCLS broth microdilution method; format: functional; conditions: NRRL Y-7179, 24 h
Candida tropicalis [3] = experiment: Antifungal activity against Candida tropicalis NRRL Y-12968 after 24 hr by NCCLS broth microdilution method; format: functional; conditions: NRRL Y-12968, 24 h
Cyberlindnera jadinii = experiment: Antifungal activity against Cyberlindnera jadinii NRRL Y-900 after 24 hr by NCCLS broth microdilution method; format: functional; conditions: Williopsis jadinii, NRRL Y-900, 24 h
Candida albicans [4] = experiment: Antifungal activity against Candida albicans ATCC 90028 after 24 hr by NCCLS broth microdilution method; format: functional; conditions: ATCC 90028, 24 h
Candida albicans [5] = experiment: Antifungal activity against Candida albicans clinical isolate after 24 hr by NCCLS broth microdilution method; format: functional
RAW264.7 = experiment: Cytotoxicity against Mus musculus (mouse) RAW264.7 cells up to 25 ug/ml; format: cell-based
HL-60 [6] = experiment: Antioxidant activity in PMA-stimulated Homo sapiens (human) HL60 cells assessed as inhibition of intracellular ROS generation up to 25 ug/ml incubated for 30 min prior to PMA stimulation measured after 30 min by DCFH-DA assay relative to vehicle-treated control; format: functional, cell-based
HL-60 [7] = experiment: Cytotoxicity against Homo sapiens (human) HL60 cells up to 25 ug/ml; format: cell-based
Vero = experiment: Cytotoxicity against Chlorocebus aethiops (African green monkey) Vero cells assessed as cell viability up to 25 ug/ml after 48 hr by neutral red assay; format: cell-based; conditions: chlorocebus sabaeus
[8] = Cytotoxicity against Sus scrofa (pig) LLC-PK11 cells assessed as cell viability up to 25 ug/ml after 48 hr by neutral red assay; format: cell-based; conditions: llc-pk11, 48 h
SK-MEL = experiment: Cytotoxicity against Homo sapiens (human) SK-MEL cells assessed as cell viability up to 25 ug/ml after 48 hr by neutral red assay; format: functional, cell-based
KB = experiment: Cytotoxicity against Homo sapiens (human) KB cells assessed as cell viability up to 25 ug/ml after 48 hr by neutral red assay; format: functional, cell-based
BT-549 = experiment: Cytotoxicity against Homo sapiens (human) BT549 cells assessed as cell viability up to 25 ug/ml after 48 hr by neutral red assay; format: functional, cell-based
Colletotrichum fragariae = experiment: Antifungal activity against Colletotrichum fragariae at 0.3 to 30 uM after 48 to 72 hr by broth microdilution method; format: functional, organism-based
Botrytis cinerea = experiment: Antifungal activity against Botryotinia fuckeliana at 0.3 to 30 uM after 48 to 72 hr by broth microdilution method; format: functional, organism-based
Candida tropicalis [9] = experiment: Antifungal activity against Candida tropicalis NRRL Y-12968 at 2000 ug/ml by agar diffusion method; format: functional; conditions: read-out: IZ
Candida albicans [10] = experiment: Antifungal activity against Candida albicans clinical isolate at 2000 ug/ml by agar diffusion method; format: functional; conditions: read-out: IZ
Transcription factor Sp1 = Transcription factor Sp1 (Homo sapiens, UniProt P08047); experiment: Inhibition of Sp1 (unknown origin) up to 25 ug/ml by luciferase reporter gene assay
Transcription factor Sp1, sequence (P08047 whole entry): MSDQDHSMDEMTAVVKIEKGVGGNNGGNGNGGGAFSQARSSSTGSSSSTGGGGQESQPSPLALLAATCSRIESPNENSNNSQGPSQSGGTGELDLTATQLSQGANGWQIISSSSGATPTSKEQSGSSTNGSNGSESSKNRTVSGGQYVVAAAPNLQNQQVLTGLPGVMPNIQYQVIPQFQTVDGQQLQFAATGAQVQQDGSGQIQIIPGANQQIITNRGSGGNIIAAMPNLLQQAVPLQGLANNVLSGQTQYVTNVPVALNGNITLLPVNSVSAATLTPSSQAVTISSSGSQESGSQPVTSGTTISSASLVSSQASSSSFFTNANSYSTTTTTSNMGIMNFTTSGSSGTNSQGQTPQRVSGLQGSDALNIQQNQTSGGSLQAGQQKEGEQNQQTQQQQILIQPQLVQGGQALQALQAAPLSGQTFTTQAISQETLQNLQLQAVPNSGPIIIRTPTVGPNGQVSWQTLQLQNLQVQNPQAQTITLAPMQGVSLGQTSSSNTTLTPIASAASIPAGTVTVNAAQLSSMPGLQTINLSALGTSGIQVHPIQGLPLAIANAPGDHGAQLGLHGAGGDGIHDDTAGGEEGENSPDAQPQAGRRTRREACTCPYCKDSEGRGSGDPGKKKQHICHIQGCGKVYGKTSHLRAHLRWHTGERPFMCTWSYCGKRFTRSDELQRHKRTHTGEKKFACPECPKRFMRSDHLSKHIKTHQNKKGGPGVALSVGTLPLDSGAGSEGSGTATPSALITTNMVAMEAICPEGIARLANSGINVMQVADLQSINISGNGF

SW1353 = experiment: Inhibition of PMA-induced NFkappaB activity in Homo sapiens (human) SW1353 cells up to 25 ug/ml incubated for 30 min followed by PMA induction for 8 hr by luciferase reporter gene assay; format: cell-based
SK-OV-3 = experiment: Cytotoxicity against Homo sapiens (human) SKOV3 cells assessed as cell viability up to 25 ug/ml after 48 hr by neutral red assay; format: functional, cell-based
[11] = biological target: T1, Nitric oxide synthase, inducible (Mus musculus, UniProt P29477); experiment: Inhibition of iNOS in Mus musculus (mouse) RAW264.7 cells assessed as inhibition of LPS-induced nitrite production incubated for 30 min prior to LPS challenge measured after 24 hr by Griess assay; format: cell-based
T1 sequence (P29477 whole entry): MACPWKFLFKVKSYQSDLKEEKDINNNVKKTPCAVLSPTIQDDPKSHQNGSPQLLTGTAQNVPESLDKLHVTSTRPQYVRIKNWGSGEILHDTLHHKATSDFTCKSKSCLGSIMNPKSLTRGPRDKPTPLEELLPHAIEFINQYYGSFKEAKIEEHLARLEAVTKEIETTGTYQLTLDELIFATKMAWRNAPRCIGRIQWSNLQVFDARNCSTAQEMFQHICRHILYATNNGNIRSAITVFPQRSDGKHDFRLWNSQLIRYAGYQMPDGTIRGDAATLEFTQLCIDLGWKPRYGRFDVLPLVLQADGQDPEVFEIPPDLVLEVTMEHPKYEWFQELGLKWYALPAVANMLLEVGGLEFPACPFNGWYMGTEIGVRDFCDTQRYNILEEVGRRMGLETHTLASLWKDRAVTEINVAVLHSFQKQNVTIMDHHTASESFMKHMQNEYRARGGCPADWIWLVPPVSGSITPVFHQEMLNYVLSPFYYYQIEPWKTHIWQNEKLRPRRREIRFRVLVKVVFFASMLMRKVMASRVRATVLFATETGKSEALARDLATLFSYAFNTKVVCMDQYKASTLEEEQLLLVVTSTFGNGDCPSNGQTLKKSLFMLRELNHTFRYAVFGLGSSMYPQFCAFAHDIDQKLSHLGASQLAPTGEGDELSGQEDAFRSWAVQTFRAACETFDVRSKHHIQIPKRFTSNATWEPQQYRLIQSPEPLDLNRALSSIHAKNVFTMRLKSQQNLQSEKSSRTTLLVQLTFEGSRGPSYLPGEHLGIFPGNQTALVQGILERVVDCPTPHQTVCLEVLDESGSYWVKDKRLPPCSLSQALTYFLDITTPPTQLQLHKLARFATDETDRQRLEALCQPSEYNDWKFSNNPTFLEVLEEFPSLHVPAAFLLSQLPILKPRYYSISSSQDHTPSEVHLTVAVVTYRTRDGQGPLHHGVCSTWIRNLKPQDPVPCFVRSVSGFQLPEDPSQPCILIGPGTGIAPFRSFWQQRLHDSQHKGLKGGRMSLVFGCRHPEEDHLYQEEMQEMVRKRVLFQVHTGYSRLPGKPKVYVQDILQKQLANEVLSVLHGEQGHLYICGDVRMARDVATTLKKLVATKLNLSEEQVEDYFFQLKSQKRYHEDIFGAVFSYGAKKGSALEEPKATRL

[12] = biological target: T2, Nitric oxide synthase, inducible (Mus musculus) (UniProt P29477); experiment: Inhibition of iNOS in Mus musculus (mouse) RAW264.7 cells assessed as inhibition of LPS-induced nitrite production up to 25 ug/ml incubated for 30 min prior to LPS challenge measured after 24 hr by Griess assay relative to vehicle-treated control; format: cell-based
T2 sequence (whole entry): T1 sequence (P29477 whole entry)

| SMILES | MIC (Candida albicans [2]) | MIC (Nakaseomyces glabratus) | MIC (Candida parapsilosis) | MIC (Pichia kudriavzevii) | MIC (Candida tropicalis [3]) | MIC (Cyberlindnera jadinii) | MIC (Candida albicans [4]) | MIC (Candida albicans [5]) | Activity (RAW264.7) | inhibition (HL-60 [6]) | Activity (HL-60 [7]) | Activity (Vero) | Activity [8] | Activity (SK-MEL) | Activity (KB) | Activity (BT-549) | zone of inhibition at 2000 µg/mL (Candida tropicalis [9]) | zone of inhibition at 2000 µg/mL (Candida albicans [10]) | inhibition (INH) (Transcription factor Sp1) | inhibition (SW1353) | also measured |
| --- | --- | --- | --- | --- | --- | --- | --- | --- | --- | --- | --- | --- | --- | --- | --- | --- | --- | --- | --- | --- | --- |
| COc1cccc2c1C(=O)c1c(O)c3c(c(O)c1C2=O)C[C@@](O)(C(=O)CO)C[C@@H]3O[C@H]1C[C@H](N)[C@H](O)[C@H](C)O1 [DOXORUBICIN] | – | – | – | – | – | – | – | – | – | – | – | – | – | – | – | – | – | – | – | – | IC50 (HL-60 [1]): 0.16 µg/mL (≈ 0.294 µM) |
| CC(=O)N1CCN(c2ccc(OCC3COC(Cn4ccnc4)(c4ccc(Cl)cc4Cl)O3)cc2)CC1 (stereo unspecified) [KETOCONAZOLE] | 125 µg/mL (≈ 235 µM) | 31 µg/mL (≈ 58.3 µM) | 125 µg/mL (≈ 235 µM) | 62 µg/mL (≈ 117 µM) | 62 µg/mL (≈ 117 µM) | 62 µg/mL (≈ 117 µM) | 62 µg/mL (≈ 117 µM) | 16 µg/mL (≈ 30.1 µM) | – | – | – | – | – | – | – | – | – | – | – | – | – |
| CC(=O)N1N=C(c2ccc(F)cc2)OC1c1ccc(N(C)C)cc1 (stereo unspecified) | 500 µg/mL (≈ 1530 µM) | 500 µg/mL (≈ 1530 µM) | 1000 µg/mL (≈ 3050 µM) | 500 µg/mL (≈ 1530 µM) | 500 µg/mL (≈ 1530 µM) | 500 µg/mL (≈ 1530 µM) | 500 µg/mL (≈ 1530 µM) | 250 µg/mL (≈ 764 µM) | Non-toxic | inactive | Non-toxic | Not Active | Not Active | inactive | inactive | inactive | 9 mm | 9 mm | Not Active | inactive | Activity (Colletotrichum fragariae): inactive; Activity (Botrytis cinerea): inactive; Activity (SK-OV-3): inactive; IC50 [11]: 61.1 µM |
| CN(C)c1ccc(/C=C/C=N/NC(=O)c2ccc(F)cc2)cc1 | 500 µg/mL (≈ 1610 µM) | 500 µg/mL (≈ 1610 µM) | 500 µg/mL (≈ 1610 µM) | 500 µg/mL (≈ 1610 µM) | 500 µg/mL (≈ 1610 µM) | 500 µg/mL (≈ 1610 µM) | 500 µg/mL (≈ 1610 µM) | 500 µg/mL (≈ 1610 µM) | Non-toxic | inactive | Non-toxic | Not Active | Not Active | inactive | inactive | inactive | 9 mm | 9 mm | Not Active | inactive | inhibition [12]: inactive; Activity (SK-OV-3): inactive |
| CC(=O)N1N=C(c2ccc(F)cc2)OC1c1ccc(F)cc1 (stereo unspecified) | 500 µg/mL (≈ 1650 µM) | 500 µg/mL (≈ 1650 µM) | 500 µg/mL (≈ 1650 µM) | 500 µg/mL (≈ 1650 µM) | 500 µg/mL (≈ 1650 µM) | 500 µg/mL (≈ 1650 µM) | 500 µg/mL (≈ 1650 µM) | 500 µg/mL (≈ 1650 µM) | Non-toxic | inactive | Non-toxic | Not Active | Not Active | inactive | inactive | inactive | 9 mm | 9 mm | Not Active | inactive | inhibition [12]: inactive; Activity (SK-OV-3): inactive |
| CC(=O)N1N=C(c2ccc(F)cc2)OC1/C=C/c1ccc(N(C)C)cc1 (stereo unspecified) | 500 µg/mL (≈ 1410 µM) | 500 µg/mL (≈ 1410 µM) | 250 µg/mL (≈ 707 µM) | 125 µg/mL (≈ 354 µM) | 125 µg/mL (≈ 354 µM) | 250 µg/mL (≈ 707 µM) | 500 µg/mL (≈ 1410 µM) | 500 µg/mL (≈ 1410 µM) | Non-toxic | inactive | Non-toxic | Not Active | Not Active | inactive | inactive | inactive | 9 mm | 9 mm | Not Active | inactive | inhibition [12]: inactive; Activity (SK-OV-3): inactive |
| COc1ccc(C2OC(c3ccc(F)cc3)=NN2C(C)=O)cc1 (stereo unspecified) | 500 µg/mL (≈ 1590 µM) | 250 µg/mL (≈ 795 µM) | 500 µg/mL (≈ 1590 µM) | 500 µg/mL (≈ 1590 µM) | 500 µg/mL (≈ 1590 µM) | 250 µg/mL (≈ 795 µM) | 500 µg/mL (≈ 1590 µM) | 250 µg/mL (≈ 795 µM) | Non-toxic | inactive | Non-toxic | Not Active | Not Active | inactive | inactive | inactive | 9 mm | 9 mm | Not Active | inactive | inhibition [12]: inactive; Activity (SK-OV-3): inactive |
